Structures are written as SMILES. Changes are numbered by the printed parent chain.

The values below come from PMC8967248, “Impact of Porphyrin Binding to GENOMES UNCOUPLED 4 on Tetrapyrrole Biosynthesis in planta” (Frontiers in Plant Science, 2022).

Experiment [1] has as its target T1, GUN4 (AtGUN4) (Arabidopsis thaliana, UniProt Q9LX31, F191A).
T1 construct: 6xHis-tagged, pQE80_AtGUN4(WT), expressed in and purified from E. coli
T1 sequence (Q9LX31 70-265 F191A): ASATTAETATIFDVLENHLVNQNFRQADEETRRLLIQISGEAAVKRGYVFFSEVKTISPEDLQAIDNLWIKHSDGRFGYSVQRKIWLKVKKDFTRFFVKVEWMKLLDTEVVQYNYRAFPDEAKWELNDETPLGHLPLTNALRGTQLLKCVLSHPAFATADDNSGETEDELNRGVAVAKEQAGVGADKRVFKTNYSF
In words: tryptophan fluorescence quenching. The conditions noted are these: read-out: apparent Kd. The class given is binding.

Experiment [2] concerns the target T2, GUN4 (AtGUN4) (Arabidopsis thaliana, UniProt Q9LX31).
T2 construct: 6xHis-tagged, pQE80_AtGUN4(WT), expressed in and purified from E. coli
T2 sequence (Q9LX31 70-265): T1 sequence (Q9LX31 70-265 F191A) with A122F
Nature of the experiment: tryptophan fluorescence quenching. The class given is binding. The conditions noted are these: read-out: apparent Kd.

Consider `C=CC1=C(C)c2cc3[nH]c(cc4nc(cc5[nH]c(cc1n2)c(C)c5CCC(=O)O)C(CCC(=O)O)=C4C)c(C)c3C=C` [PIX], for which the Kd came out at 2100 ± 280 nM on GUN4 (AtGUN4) [1] and 1050 ± 120 nM at GUN4 (AtGUN4) [2].
